Laboratory results taken from US6525001B1, “Substituted pyrimidine and pyridine herbicides” (Mid-American Commercialization Corporation, priority 1997, dated 2003).

Experiments:
Assay type in all cases: in vivo
Parameters in all cases: key: 0 is no effect; 10 is complete control
soybean (Glycine max) = assay: Test B pre-/postemergence
Method in brief: (§1)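 Seeds were planted and sprayed preemergence, while plants at 2 to 18 cm (1- to 4-leaf stage) were sprayed postemergence at the same time, with test chemical in a non-phytotoxic solvent mixture containing surfactant. After twelve to sixteen days in a greenhouse, injury was rated visually against untreated controls on a 0–10 scale.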

[1] = test system: momingglory (Ipomoea hederacea); assay: Test B pre-/postemergence
Method in brief: as §1

[2] = test system: purple nutsedge (Cyperus rotundus); assay: Test B pre-/postemergence
Method in brief: as §1

[3] = test system: cocklebur (Xanthium strumarium); assay: Test B pre-/postemergence; conditions: for Cocklebur plant response rating: Preemergence
Method in brief: as §1

[4] = test system: pigweed (Amaranthus retroflexus); assay: Test B pre-/postemergence
Method in brief: as §1

[5] = test system: wheat (Triticum aestivum); assay: Test B pre-/postemergence
Method in brief: as §1

[6] = test system: sugar beet (Beta vulgaris); assay: Test B pre-/postemergence
Method in brief: as §1

[7] = test system: broadleaf signalgrass (Brachiaria decumbens); assay: Test B pre-/postemergence; conditions: for B. signalgrass plant response rating: Preemergence
Method in brief: as §1

[8] = test system: crabgrass (Digitaria sanguinalis); assay: Test B pre-/postemergence; conditions: for Crabgrass plant response rating: Preemergence
Method in brief: as §1

rape (Brassica napus) = assay: Test B pre-/postemergence
Method in brief: as §1

wild oat (Avena fatua) = assay: Test B pre-/postemergence
Method in brief: as §1

[9] = test system: bedstraw (Galium aparine); assay: Test B pre-/postemergence; conditions: for Bedstraw plant response rating: Preemergence
Method in brief: as §1

corn (Zea mays) = assay: Test B pre-/postemergence; conditions: for Corn plant response rating: Preemergence
Method in brief: as §1

[10] = test system: giant foxtail (Setaria faberii); assay: Test B pre-/postemergence
Method in brief: as §1

[11] = test system: blackgrass (Alopecurus myosuroides); assay: Test B pre-/postemergence; conditions: for Blackgrass plant response rating: Preemergence
Method in brief: as §1

[12] = test system: velvetleaf (Abutilon theophrasti); assay: Test B pre-/postemergence
Method in brief: as §1

[13] = test system: duck salad (Heteranthera limosa); assay: Test B flood test
Method in brief: (§2)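 Plants were grown to the 2-leaf stage before treatment with test chemical, then held in a greenhouse for twelve to sixteen days. Injury was visually rated against untreated controls on a 0–10 scale, where 0 is no effect and 10 is complete control.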

rice (Oryza sativa) = assay: Test B flood test
Method in brief: as §2

[14] = test system: smallflower flatsedge (Cyperus difformis); assay: Test B flood test
Method in brief: as §2

[15] = test system: bamyardgrass (Echinochloa crus-galli); assay: Test B flood test
Method in brief: as §2

[16] = Rate 250 g/ha, Postemergence (so in the source)
[17] = Rate 62 g/ha, Postemergence (flood test)
[18] = Rate 125 g/ha, Postemergence, flood test
[19] = Rate 250 g/ha, Postemergence (flood test species)
[20] = Rate 125 g/ha, Postemergence section (flood test species)

COc1cnc(-n2ccc(C(F)(F)F)n2)nc1Cc1cccc(C(F)(F)F)c1 [Compound 45]
0: Plant response rating, Soybean (soybean (Glycine max); Rate 62 g/ha, Postemergence) | Soybean plant response rating (soybean (Glycine max); Rate 62 g/ha, Preemergence) | Soybean plant response rating (soybean (Glycine max); Rate 125 g/ha, Postemergence) | Plant response rating, Soybean (soybean (Glycine max); Rate 125 g/ha, Preemergence) | Plant response rating, Soybean (soybean (Glycine max); Rate 250 g/ha, Postemergence) | Plant response rating, Soybean (soybean (Glycine max); [16]) | Plant response rating, Morningglory ([1]; Rate 62 g/ha, Postemergence) | Morningglory plant response rating ([1]; Rate 62 g/ha, Preemergence) | Morningglory plant response rating ([1]; Rate 125 g/ha, Postemergence) | Morningglory plant response rating ([1]; Rate 125 g/ha, Preemergence) | Plant response rating, Morningglory ([1]; Rate 250 g/ha, Postemergence) | Plant response rating, Morningglory [1, 16] | Plant response rating, Nutsedge ([2]; Rate 62 g/ha, Postemergence) | Nutsedge plant response rating ([2]; Rate 62 g/ha, Preemergence) | Nutsedge plant response rating ([2]; Rate 125 g/ha, Postemergence) | Nutsedge plant response rating ([2]; Rate 125 g/ha, Preemergence) | Plant response rating, Nutsedge [2, 16] | Plant response rating, Cocklebur ([3]; Rate 62 g/ha, Postemergence) | Cocklebur plant response rating ([3]; Rate 62 g/ha) | Plant response rating, Cocklebur ([3]; Rate 125 g/ha, Postemergence) | Cocklebur plant response rating ([3]; Rate 125 g/ha) | Plant response rating, Cocklebur ([3]; Rate 250 g/ha, Postemergence) | Plant response rating, Cocklebur [3, 16] | Plant response rating, Redroot pigweed ([4]; Rate 62 g/ha, Postemergence) | Redroot pigweed plant response rating ([4]; Rate 62 g/ha, Preemergence) | Redroot pigweed plant response rating ([4]; Rate 125 g/ha, Postemergence) | Redroot pigweed plant response rating ([4]; Rate 125 g/ha, Preemergence) | Plant response rating, Redroot pigweed ([4]; Rate 250 g/ha, Postemergence) | Plant response rating, Redroot pigweed [4, 16] | Wheat plant response rating ([5]; Rate 62 g/ha, Postemergence) | Wheat plant response rating ([5]; Rate 62 g/ha, Preemergence) | Wheat plant response rating ([5]; Rate 125 g/ha, Postemergence) | Plant response rating, Wheat ([5]; Rate 125 g/ha, Preemergence) | Plant response rating, Wheat ([5]; Rate 250 g/ha, Postemergence) | Plant response rating, Wheat [5, 16] | Plant response rating, Sugarbeets ([6]; Rate 62 g/ha, Postemergence) | Sugarbeets plant response rating ([6]; Rate 62 g/ha, Preemergence) | Sugarbeets plant response rating ([6]; Rate 125 g/ha, Postemergence) | Plant response rating, Sugarbeets ([6]; Rate 125 g/ha, Preemergence) | Plant response rating, Sugarbeets ([6]; Rate 250 g/ha, Postemergence) | Plant response rating, Sugarbeets [6, 16] | Plant response rating, B. signalgrass ([7]; Rate 62 g/ha, Postemergence) | B. signalgrass plant response rating ([7]; Rate 62 g/ha) | Plant response rating, B. signalgrass ([7]; Rate 125 g/ha, Postemergence) | B. signalgrass plant response rating ([7]; Rate 125 g/ha) | Plant response rating, B. signalgrass ([7]; Rate 250 g/ha, Postemergence) | Plant response rating, B. signalgrass ([7]; Rate 250 g/ha, Postemergence as printed in head r139 (second section for compounds 26-50)) | Plant response rating, Crabgrass ([8]; Rate 62 g/ha, Postemergence) | Crabgrass plant response rating ([8]; Rate 62 g/ha) | Plant response rating, Crabgrass ([8]; Rate 125 g/ha, Postemergence) | Crabgrass plant response rating ([8]; Rate 125 g/ha) | Plant response rating, Crabgrass ([8]; Rate 250 g/ha, Postemergence) | Plant response rating, Crabgrass [8, 16] | Plant response rating, Rape (rape (Brassica napus); Rate 62 g/ha, Postemergence) | Rape plant response rating (rape (Brassica napus); Rate 62 g/ha, Preemergence) | Rape plant response rating (rape (Brassica napus); Rate 125 g/ha, Postemergence) | Rape plant response rating (rape (Brassica napus); Rate 125 g/ha, Preemergence) | Plant response rating, Rape (rape (Brassica napus); Rate 250 g/ha, Postemergence) | Plant response rating, Rape (rape (Brassica napus); [16]) | Wild oats plant response rating (wild oat (Avena fatua); Rate 62 g/ha, Postemergence) | Wild oats plant response rating (wild oat (Avena fatua); Rate 62 g/ha, Preemergence) | Wild oats plant response rating (wild oat (Avena fatua); Rate 125 g/ha, Postemergence) | Plant response rating, Wild oats (wild oat (Avena fatua); Rate 125 g/ha, Preemergence) | Plant response rating, Wild oats (wild oat (Avena fatua); Rate 250 g/ha, Postemergence) | Plant response rating, Wild oats (wild oat (Avena fatua); [16]) | Plant response rating, Bedstraw ([9]; Rate 62 g/ha, Postemergence) | Bedstraw plant response rating ([9]; Rate 62 g/ha) | Plant response rating, Bedstraw ([9]; Rate 125 g/ha, Postemergence) | Bedstraw plant response rating ([9]; Rate 125 g/ha) | Plant response rating, Bedstraw ([9]; Rate 250 g/ha, Postemergence) | Plant response rating, Bedstraw [9, 16] | Plant response rating, Corn (corn (Zea mays); Rate 62 g/ha, Postemergence) | Corn plant response rating (corn (Zea mays); Rate 62 g/ha) | Plant response rating, Corn (corn (Zea mays); Rate 125 g/ha, Postemergence) | Corn plant response rating (corn (Zea mays); Rate 125 g/ha) | Plant response rating, Corn (corn (Zea mays); Rate 250 g/ha, Postemergence) | Plant response rating, Corn (corn (Zea mays); [16]) | Plant response rating, Giant foxtail ([10]; Rate 62 g/ha, Postemergence) | Giant foxtail plant response rating ([10]; Rate 62 g/ha, Preemergence) | Giant foxtail plant response rating ([10]; Rate 125 g/ha, Postemergence) | Giant foxtail plant response rating ([10]; Rate 125 g/ha, Preemergence) | Plant response rating, Giant foxtail ([10]; Rate 250 g/ha, Postemergence) | Plant response rating, Giant foxtail [10, 16] | Plant response rating, Blackgrass ([11]; Rate 62 g/ha, Postemergence) | Blackgrass plant response rating ([11]; Rate 62 g/ha) | Plant response rating, Blackgrass ([11]; Rate 125 g/ha, Postemergence) | Blackgrass plant response rating ([11]; Rate 125 g/ha) | Plant response rating, Blackgrass ([11]; Rate 250 g/ha, Postemergence) | Plant response rating, Blackgrass [11, 16] | Plant response rating, Velvetleaf ([12]; Rate 62 g/ha, Postemergence) | Velvetleaf plant response rating ([12]; Rate 62 g/ha, Preemergence) | Velvetleaf plant response rating ([12]; Rate 125 g/ha, Postemergence) | Plant response rating, Velvetleaf ([12]; Rate 125 g/ha, Preemergence) | Plant response rating, Velvetleaf ([12]; Rate 250 g/ha, Postemergence) | Plant response rating, Velvetleaf [12, 16] | Plant response rating, Ducksalad [13, 17] | Plant response rating, Ducksalad [13, 18] | Plant response rating, Ducksalad [13, 19] | Plant response rating, Rice (rice (Oryza sativa); [17]) | Rice plant response rating (rice (Oryza sativa); [20]) | Plant response rating, Rice (rice (Oryza sativa); [19]) | Plant response rating, S. Flatsedge [14, 17] | S. Flatsedge plant response rating [14, 20] | Plant response rating, S. Flatsedge [14, 19] | Plant response rating, Barnyardgrass [15, 17] | Plant response rating, Barnyardgrass [15, 18] | Plant response rating, Barnyardgrass [15, 19]
